Where two headings read alike, the source gives them in different places.
Experiments:
MLLT3 = MLLT3 (Homo sapiens, UniProt P42568); experiment: HTRF IC50 determination assay, MLLT3 / H3K9cro peptide displacement
MLLT1 [1] = target: T1, MLLT1 (Homo sapiens, UniProt Q03111); conditions: read-out: MLLT1 assay IC50; HTRF, 6His tagged MLLT1, biotinylated H3K9cro peptide; compound 20 μM to 20 nM, 11 data points in duplicate
MLLT1 [2] = target: T1, MLLT1; experiment: biochemical; conditions: MLLT1 assay IC50 (nM), HTRF, 6His tagged MLLT1, biotinylated H3K9cro peptide; compound 20 μM to 20 nM, 11 data points in duplicate
[3] = read-out: MLLT3 assay IC50, 6His tagged MLLT3, biotinylated H3K9cro peptide, compound 20 μM to 20 nM, 11 data points in duplicate
[4] = MLLT3 assay IC50 (nM), 6His tagged MLLT3, biotinylated H3K9cro peptide, compound 20 μM to 20 nM, 11 data points in duplicate

T1 sequence (Q03111 whole entry): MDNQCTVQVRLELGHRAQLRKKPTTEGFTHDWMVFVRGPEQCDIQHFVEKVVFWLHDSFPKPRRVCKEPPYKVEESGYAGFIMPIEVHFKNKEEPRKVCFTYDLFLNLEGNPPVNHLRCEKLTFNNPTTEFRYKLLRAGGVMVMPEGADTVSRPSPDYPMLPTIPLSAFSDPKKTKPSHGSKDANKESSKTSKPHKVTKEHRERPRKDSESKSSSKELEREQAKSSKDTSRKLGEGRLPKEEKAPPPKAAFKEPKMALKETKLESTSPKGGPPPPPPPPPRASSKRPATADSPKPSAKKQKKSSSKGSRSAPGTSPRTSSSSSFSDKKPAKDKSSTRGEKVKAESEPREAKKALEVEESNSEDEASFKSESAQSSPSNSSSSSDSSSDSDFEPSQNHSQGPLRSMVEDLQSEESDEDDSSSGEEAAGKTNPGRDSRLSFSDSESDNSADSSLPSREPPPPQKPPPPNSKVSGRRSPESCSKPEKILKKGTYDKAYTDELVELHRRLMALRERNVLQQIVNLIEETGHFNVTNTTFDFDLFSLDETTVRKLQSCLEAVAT
MLLT3, sequence (P42568 whole entry): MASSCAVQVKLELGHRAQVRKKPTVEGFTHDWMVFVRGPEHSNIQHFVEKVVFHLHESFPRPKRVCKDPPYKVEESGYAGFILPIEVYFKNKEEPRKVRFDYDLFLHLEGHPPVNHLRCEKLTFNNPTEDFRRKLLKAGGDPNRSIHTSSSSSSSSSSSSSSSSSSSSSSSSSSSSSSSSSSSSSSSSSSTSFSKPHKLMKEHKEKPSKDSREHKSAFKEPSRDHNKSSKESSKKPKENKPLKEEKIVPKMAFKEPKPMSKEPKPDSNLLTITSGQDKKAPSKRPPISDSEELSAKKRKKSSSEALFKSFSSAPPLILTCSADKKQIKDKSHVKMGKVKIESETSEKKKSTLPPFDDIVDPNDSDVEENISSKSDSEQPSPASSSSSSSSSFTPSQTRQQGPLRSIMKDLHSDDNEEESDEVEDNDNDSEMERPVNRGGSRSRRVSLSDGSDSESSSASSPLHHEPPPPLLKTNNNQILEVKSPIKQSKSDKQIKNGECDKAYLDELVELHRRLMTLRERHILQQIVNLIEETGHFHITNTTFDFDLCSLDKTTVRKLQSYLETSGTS

Compound | IC50 (MLLT3; [4]) [nM] | IC50 (MLLT1 [2]) [nM] | IC50 (MLLT3; [3]) [nM] | IC50 (MLLT1 [1]) [nM]
CO[C@H]1C[C@@H](c2cn3cc(NC(=O)c4ccc5c(cnn5C)c4)ncc3n2)N(C)C1 (stereo in doubt) [Example 86, N-{2-[(rel-2S,4S)-4-methoxy-1-methylpyrrolidin-2-yl]imidazo[1,2-a]pyrazin-6-yl}-1-methylindazole-5-carboxamide] |  |  | 1500 to 20000 | 150 to 1500
C[C@@H]1C[C@H](c2cn3cc(NC(=O)c4ccc5c(cnn5C)c4)ncc3n2)N(C)C1 (relative stereo) [Example 90, N-(2-((2R, rel-4R)-1,4-dimethylpyrrolidin-2-yl)imidazo[1,2-a]pyrazin-6-yl)-1-methyl-1H-indazole-5-carboxamide] |  |  | 150 to 1500 | < 150
C[C@H]1C[C@H](c2cn3cc(NC(=O)c4ccc5c(cnn5C)c4)ncc3n2)N(C)C1 (relative stereo) [Example 89, N-(2-((2R, rel-4S)-1,4-dimethylpyrrolidin-2-yl)imidazo[1,2-a]pyrazin-6-yl)-1-methyl-1H-indazole-5-carboxamide] |  |  | 150 to 1500 | 150 to 1500
CO[C@@H]1C[C@@H](c2cn3cc(NC(=O)c4ccc5c(cnn5C)c4)ncc3n2)N(C)C1 (stereo in doubt) [Example 104, N-{2-[(rel-2S,4R)-4-methoxy-1-methylpyrrolidin-2-yl]imidazo[1,2-a]pyrazin-6-yl}-1-methylindazole-5-carboxamide] |  |  | 1500 to 20000 | 150 to 1500
CO[C@@H]1C[C@H](c2cn3cc(NC(=O)c4ccc5c(cnn5C)c4)ncc3n2)N(C)C1 (stereo in doubt) [Example 103, N-{2-[(rel-2R,4R)-4-methoxy-1-methylpyrrolidin-2-yl]imidazo[1,2-a]pyrazin-6-yl}-1-methylindazole-5-carboxamide] |  |  | 150 to 1500 | 150 to 1500
CO[C@H]1C[C@H](c2cn3cc(NC(=O)c4ccc5c(cnn5C)c4)ncc3n2)N(C)C1 (stereo in doubt) [Example 85, N-{2-[(rel-2R,4S)-4-methoxy-1-methylpyrrolidin-2-yl]imidazo[1,2-a]pyrazin-6-yl}-1-methylindazole-5-carboxamide] |  |  | 150 to 1500 | 150 to 1500
Cc1nn(C)c2sc(C(=O)Nc3ccc4nc(C5CCCN5C)cn4c3)cc12 (racemic) [Example 18, rac-1,3-dimethyl-N-[2-(1-methylpyrrolidin-2-yl)imidazo[1,2-a]pyridin-6-yl]-1H-thieno[2,3-c]pyrazole-5-carboxamide] | 1500 to 20000 | 1500 to 20000 |  | 
CN1CCOCC1c1cn2cc(NC(=O)c3ccc4c(cnn4C)c3)ccc2n1 (racemic) [Example 2, rac-1-methyl-N-[2-(4-methylmorpholin-3-yl)imidazo[1,2-a]pyridin-6-yl]indazole-5-carboxamide] | 1500 to 20000 | 1500 to 20000 |  | 

Now from value to compound, other results behind:

IC50 (MLLT3; [4]) [nM] | IC50 (MLLT1 [2]) [nM] | Compound | IC50 (MLLT3; [3]) [nM] | IC50 (MLLT1 [1]) [nM]
150 to 1500 | 150 to 1500 | CN1CCC[C@@H]1c1cn2cc(NC(=O)c3ccc4nnn(C)c4c3)ncc2n1 [Example 97, 3-methyl-N-{2-[(2R)-1-methylpyrrolidin-2-yl]imidazo[1,2-a]pyrazin-6-yl}-1,2,3-benzotriazole-5-carboxamide] |  | 
1500 to 20000 | 150 to 1500 | COC1CC(c2cn3cc(NC(=O)c4ccc5c(cnn5C)c4)ccc3n2)N(C)C1 (racemic) [Example 65, rac-N-[2-(4-methoxy-1-methylpyrrolidin-2-yl)imidazo[1,2-a]pyridin-6-yl]-1-methyl-1H-indazole-5-carboxamide] |  | 
150 to 1500 | 150 to 1500 | Cc1ncc(-c2ccc(F)c(C(=O)Nc3ccc4nc(C5CCCN5C)cn4c3)c2)s1 (single isomer, unassigned) [Example 23] |  | 
150 to 1500 | < 150 | CN1CCCC1c1cn2cc(NC(=O)c3ccc4c(cnn4C)c3)ccc2n1 (single isomer, unassigned) [Example 60] |  | 
1500 to 20000 | 1500 to 20000 | CN1CCCC1c1cn2cc(NC(=O)c3cn4ccncc4n3)ccc2n1 (racemic) [Example 34, rac-N-[2-(1-methylpyrrolidin-2-yl)imidazo[1,2-a]pyridin-6-yl]imidazo[1,2-a]pyrazine-2-carboxamide] |  | 
1500 to 20000 | 150 to 1500 | CN1CCCC1c1cn2cc(NC(=O)c3ccc4cncnc4c3)ccc2n1 (racemic) [Example 47, rac-N-[2-(1-methylpyrrolidin-2-yl)imidazo[1,2-a]pyridin-6-yl]quinazoline-7-carboxamide] |  | 
150 to 1500 | 150 to 1500 | CN1C[C@H](F)C[C@@H]1c1cn2cc(NC(=O)c3ccc4c(cnn4C)c3)ncc2n1 [Example 105, N-(2-((2R,4R)-4-fluoro-1-methylpyrrolidin-2-yl)imidazo[1,2-a]pyrazin-6-yl)-1-methyl-1H-indazole-5-carboxamide] |  | 
1500 to 20000 | 150 to 1500 | CN1CCCC1c1cn2cc(NC(=O)c3cc4ccncc4o3)ccc2n1 (racemic) [Example 54, rac-N-[2-(1-methylpyrrolidin-2-yl)imidazo[1,2-a]pyridin-6-yl]furo[2,3-c]pyridine-2-carboxamide] |  | 

Source: US20260216196A1, “IMIDAZO[1,2-A]PYRIDINE AND IMIDAZO[1,2-A]PYRAZINE DERIVATIVES AS MLLT1 AND MLLT3 INHIBITORS” (DARK BLUE THERAPEUTICS LTD., priority 2022, published 2026)
